Our source for the IC50 and Activity values is ChEMBL document CHEMBL5352495, “Development of novel pyrazole, imidazo[1,2-b]pyrazole, and pyrazolo[1,5-a]pyrimidine derivatives as a new class of COX-2 inhibitors with immunomodulatory potential” (Eur J Med Chem, 2023).

For assay [1], the target named is T1, Prostaglandin G/H synthase 2 (Homo sapiens, UniProt P35354).
T1 sequence (P35354 whole entry): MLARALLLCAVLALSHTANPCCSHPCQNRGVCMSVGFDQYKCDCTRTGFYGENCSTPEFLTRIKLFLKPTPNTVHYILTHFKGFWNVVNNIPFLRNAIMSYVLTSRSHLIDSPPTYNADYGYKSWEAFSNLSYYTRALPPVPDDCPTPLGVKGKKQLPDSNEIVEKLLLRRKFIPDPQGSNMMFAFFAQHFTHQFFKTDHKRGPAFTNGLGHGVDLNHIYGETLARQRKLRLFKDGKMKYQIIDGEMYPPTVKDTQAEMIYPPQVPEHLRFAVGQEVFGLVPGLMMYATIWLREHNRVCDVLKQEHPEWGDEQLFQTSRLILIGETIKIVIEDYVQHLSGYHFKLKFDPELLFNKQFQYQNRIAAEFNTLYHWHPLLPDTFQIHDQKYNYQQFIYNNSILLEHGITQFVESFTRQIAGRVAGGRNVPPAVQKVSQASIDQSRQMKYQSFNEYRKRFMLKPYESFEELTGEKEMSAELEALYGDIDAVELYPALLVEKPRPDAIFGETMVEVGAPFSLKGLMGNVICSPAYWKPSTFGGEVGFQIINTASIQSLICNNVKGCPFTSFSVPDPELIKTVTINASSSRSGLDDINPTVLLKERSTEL
Description: Inhibition of COX-2 (unknown origin) incubated for 5 to 10 mins by fluorometric analysis

The subject of assay [2] is RAW264.7. Nature of the assay: Anti-inflammatory activity against LPS-stimulated mouse RAW264.7 cells assessed as inhibition of TNF alpha expression at 10 ug by qRT-PCR analysis relative to control. The format is functional. More on the design: scale not given: the % may be the effect or the level left. The settings on record: dose 10 µg. A general note: Quantitative PCR measures a nucleic acid by following its amplification.

Assay [3] has as its system RAW264.7. Description: Anti-inflammatory activity against LPS-stimulated mouse RAW264.7 cells assessed as inhibition of IL-6 expression at 10 ug by qRT-PCR analysis relative to control. It is filed as functional. Also on record: scale not given: the % may be the effect or the level left. As to conditions: dose 10 µg.

By IC50 is commonly meant the midpoint of a concentration-inhibition curve. `COC(=O)c1cc(=O)n2nc(N)c(/N=N/c3ccc(O)cc3)c2[nH]1` registered an IC50 in assay [1] of 67.5 µM.

`Nc1nn2c(-c3cccs3)cc(-c3cccs3)nc2c1/N=N/c1ccc(O)cc1` yielded an IC50 in assay [1] of 3.37 µM. Also, the Activity is given as 59.2% in assay [2] and 70.3% in assay [3].

On to `CC1=Nc2c(/N=N/c3ccc(O)cc3)c(N)nn2C1=O`, for which, in assay [1], the midpoint of inhibition, the IC50, lay at 295 µM. Molecule `CC(=O)Nc1nn2c(NC(C)=O)cc(=O)[nH]c2c1/N=N/c1ccc(O)cc1` showed an IC50 in assay [1] of 15.9 µM.

In turn, `Cc1cc(=O)n2nc(N)c(/N=N/c3ccc(O)cc3)c2[nH]1` yielded an IC50 in assay [1] of 5.68 µM. For the same molecule, the Activity is on record as 63.1% in assay [2] and 65.8% in assay [3]. With `COc1ccc(-c2nc3c(/N=N/c4ccc(O)cc4)c(N)nn3c(N)c2C#N)cc1`, in assay [1], the IC50 was found to be 21.1 µM. The same measure, in the same setting: next, `Nc1n[nH]c(/N=C2/C(=O)Nc3ccc(S(=O)(=O)N4CCCC4)cc32)c1/N=N/c1ccc(O)cc1`: 36.5 µM; `CCOC(=O)C1=Nc2c(/N=N/c3ccc(O)cc3)c(N)nn2C1=O`: 79.3 µM; `CCOC(=O)CC(=O)Nc1[nH]nc(N)c1/N=N/c1ccc(O)cc1`: 125 µM. Same read-out and setting: next, `Nc1n[nH]c(N=c2c(=O)c3ccccc3c2=O)c1/N=N/c1ccc(O)cc1`: 61.4 µM. Take `N#Cc1c(-c2ccccc2Cl)nc2c(/N=N/c3ccc(O)cc3)c(N)nn2c1N`: the IC50 in assay [1] worked out at 84.8 µM.

Take `Cc1cc(C)n2nc(N)c(/N=N/c3ccc(O)cc3)c2n1`: 46.3 µM corresponded to half-maximal inhibition in assay [1] (IC50). For `Cc1ccc(-c2cc(C(F)(F)F)nn2-c2ccc(S(N)(=O)=O)cc2)cc1` [CELECOXIB], the Activity worked out at 72.7% in assay [2] and 76.8% in assay [3].
